From PubChem BioAssay (NCI)
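The compound was tested at five concentrations on cells cultured in 96-well plates, with a 48-hour exposure period. The concentration for full growth arrest is given as TGI.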

Legend:
Assay in all cases: growth of human tumour cells (NCI), 48 h
ACHN renal = tested on: ACHN renal
CAKI-1 renal = tested on: CAKI-1 renal
CCRF-CEM leukemia = tested on: CCRF-CEM leukemia
COLO 205 colon = tested on: COLO 205 colon
DMS 273 small cell lung = tested on: DMS 273 small cell lung
EKVX NSCLC = tested on: EKVX NSCLC
HCC-2998 colon = tested on: HCC-2998 colon
HCT-116 colon = tested on: HCT-116 colon
HCT-15 colon = tested on: HCT-15 colon
HL-60(TB) leukemia = tested on: HL-60(TB) leukemia
HOP-62 NSCLC = tested on: HOP-62 NSCLC
HOP-92 NSCLC = tested on: HOP-92 NSCLC
IGROV1 ovarian = tested on: IGROV1 ovarian
K-562 leukemia = tested on: K-562 leukemia
KM12 colon = tested on: KM12 colon
LOX IMVI melanoma = tested on: LOX IMVI melanoma
LXFL 529 NSCLC = tested on: LXFL 529 NSCLC
M14 melanoma = tested on: M14 melanoma
M19-MEL melanoma = tested on: M19-MEL melanoma
MALME-3M melanoma = tested on: MALME-3M melanoma
MOLT-4 leukemia = tested on: MOLT-4 leukemia
NCI-H522 lung = tested on: NCI-H522 lung
OVCAR-3 ovarian = tested on: OVCAR-3 ovarian
OVCAR-4 ovarian = tested on: OVCAR-4 ovarian
RPMI-8226 leukemia = tested on: RPMI-8226 leukemia
SF-268 CNS = tested on: SF-268 CNS
SK-MEL-2 melanoma = tested on: SK-MEL-2 melanoma
SK-OV-3 ovarian = tested on: SK-OV-3 ovarian
SN12C renal = tested on: SN12C renal
SNB-75 CNS = tested on: SNB-75 CNS
SR leukemia = tested on: SR leukemia
SW-620 colon = tested on: SW-620 colon
XF 498 CNS = tested on: XF 498 CNS
786-0 renal = tested on: 786-0 renal
A498 renal = tested on: A498 renal
A549 NSCLC = tested on: A549 NSCLC
DLD-1 colon = tested on: DLD-1 colon
DMS 114 small cell lung = tested on: DMS 114 small cell lung
HT29 colon = tested on: HT29 colon
KM20L2 colon = tested on: KM20L2 colon
NCI-H226 lung = tested on: NCI-H226 lung
NCI-H23 lung = tested on: NCI-H23 lung
NCI-H460 lung = tested on: NCI-H460 lung
OVCAR-5 ovarian = tested on: OVCAR-5 ovarian
OVCAR-8 ovarian = tested on: OVCAR-8 ovarian
RXF 393 renal = tested on: RXF 393 renal
SF-295 CNS = tested on: SF-295 CNS
SF-539 CNS = tested on: SF-539 CNS
SK-MEL-28 melanoma = tested on: SK-MEL-28 melanoma
SK-MEL-5 melanoma = tested on: SK-MEL-5 melanoma
SNB-19 CNS = tested on: SNB-19 CNS
SNB-78 CNS = tested on: SNB-78 CNS
TK-10 renal = tested on: TK-10 renal
U251 CNS = tested on: U251 CNS
UACC-257 melanoma = tested on: UACC-257 melanoma
UACC-62 melanoma = tested on: UACC-62 melanoma
UO-31 renal = tested on: UO-31 renal

Which TGI (ACHN renal) does the source give for O=c1n(CCCCn2c(=O)n(CC3CS3)c3ccccc32)c2ccccc2n1CC1CS1 (stereo unspecified) here?
The TGI was 77.6 µM.

What about the TGI (CAKI-1 renal) of the same compound?
The TGI was 35.5 µM.

What about the TGI (CCRF-CEM leukemia) of the same compound?
The TGI was 81.4 µM.

And the TGI (COLO 205 colon)?
The TGI was 35.6 µM.

And the TGI (DMS 273 small cell lung)?
Its TGI is 42.7 µM.

And the TGI (EKVX NSCLC)?
The TGI was 76.2 µM.

What about the TGI (HCC-2998 colon) of the same compound?
Its TGI is 35.9 µM.

What about the TGI (HCT-116 colon) of the same compound?
The TGI was 39.7 µM.

And the TGI (HCT-15 colon)?
Its TGI is 33.2 µM.

And the TGI (HL-60(TB) leukemia)?
Its TGI is 6.34 µM.

And the TGI (HOP-62 NSCLC)?
The TGI was 43.9 µM.

And the TGI (HOP-92 NSCLC)?
The TGI was 86.5 µM.

And the TGI (IGROV1 ovarian)?
The TGI was 32 µM.

What about the TGI (K-562 leukemia) of the same compound?
Its TGI is 37.5 µM.

And the TGI (KM12 colon)?
The TGI was 24.2 µM.

What about the TGI (LOX IMVI melanoma) of the same compound?
The TGI was 14.4 µM.

What about the TGI (LXFL 529 NSCLC) of the same compound?
The TGI was 33.1 µM.

And the TGI (M14 melanoma)?
The TGI was 23.2 µM.

What about the TGI (M19-MEL melanoma) of the same compound?
The TGI was 45.8 µM.

And the TGI (MALME-3M melanoma)?
The TGI was 22.8 µM.

What about the TGI (MOLT-4 leukemia) of the same compound?
The TGI was 5.82 µM.

And the TGI (NCI-H522 lung)?
The TGI was 31.6 µM.

What about the TGI (OVCAR-3 ovarian) of the same compound?
The TGI was 29.4 µM.

And the TGI (OVCAR-4 ovarian)?
The TGI was 34 µM.

And the TGI (RPMI-8226 leukemia)?
Its TGI is 30.3 µM.

And the TGI (SF-268 CNS)?
The TGI was greater than 100 µM.

What about the TGI (SK-MEL-2 melanoma) of the same compound?
The TGI was 29 µM.

And the TGI (SK-OV-3 ovarian)?
Its TGI is greater than 100 µM.

What about the TGI (SN12C renal) of the same compound?
The TGI was 36.5 µM.

What about the TGI (SNB-75 CNS) of the same compound?
The TGI was 61.4 µM.

And the TGI (SR leukemia)?
The TGI was 21.5 µM.

And the TGI (SW-620 colon)?
The TGI was 39.8 µM.

And the TGI (XF 498 CNS)?
The TGI was 20.6 µM.

Which results are given for C/C(=C\CC[C@]1(C)OC(C)(C)OC1CC/C(C)=C/CO[Si](c1ccccc1)(c1ccccc1)C(C)(C)C)CC/C=C/CO[Si](C)(C)C(C)(C)C (stereo partly specified)?
TGI (786-0 renal): > 100 µM; TGI (A498 renal): > 100 µM; TGI (A549 NSCLC): > 100 µM; TGI (ACHN renal): > 100 µM; TGI (CAKI-1 renal): > 100 µM; TGI (CCRF-CEM leukemia): > 100 µM; TGI (DLD-1 colon): > 100 µM; TGI (DMS 114 small cell lung): > 100 µM; TGI (DMS 273 small cell lung): > 100 µM; TGI (EKVX NSCLC): > 100 µM; TGI (HCC-2998 colon): > 100 µM; TGI (HCT-116 colon): > 100 µM; TGI (HCT-15 colon): > 100 µM; TGI (HL-60(TB) leukemia): > 100 µM; TGI (HOP-62 NSCLC): > 100 µM; TGI (HOP-92 NSCLC): > 100 µM; TGI (HT29 colon): > 100 µM; TGI (IGROV1 ovarian): > 100 µM; TGI (K-562 leukemia): > 100 µM; TGI (KM12 colon): > 100 µM; TGI (KM20L2 colon): > 100 µM; TGI (LOX IMVI melanoma): > 100 µM; TGI (M14 melanoma): > 100 µM; TGI (M19-MEL melanoma): > 100 µM; TGI (MALME-3M melanoma): > 100 µM; TGI (MOLT-4 leukemia): > 100 µM; TGI (NCI-H226 lung): > 100 µM; TGI (NCI-H23 lung): > 100 µM; TGI (NCI-H460 lung): > 100 µM; TGI (NCI-H522 lung): > 100 µM; TGI (OVCAR-3 ovarian): > 100 µM; TGI (OVCAR-4 ovarian): > 100 µM; TGI (OVCAR-5 ovarian): > 100 µM; TGI (OVCAR-8 ovarian): > 100 µM; TGI (RPMI-8226 leukemia): > 100 µM; TGI (RXF 393 renal): > 100 µM; TGI (SF-268 CNS): > 100 µM; TGI (SF-295 CNS): > 100 µM; TGI (SF-539 CNS): > 100 µM; TGI (SK-MEL-2 melanoma): > 100 µM; TGI (SK-MEL-28 melanoma): > 100 µM; TGI (SK-MEL-5 melanoma): > 100 µM; TGI (SK-OV-3 ovarian): > 100 µM; TGI (SN12C renal): > 100 µM; TGI (SNB-19 CNS): > 100 µM; TGI (SNB-75 CNS): > 100 µM; TGI (SNB-78 CNS): > 100 µM; TGI (SW-620 colon): > 100 µM; TGI (TK-10 renal): > 100 µM; TGI (U251 CNS): > 100 µM; TGI (UACC-257 melanoma): > 100 µM; TGI (UACC-62 melanoma): > 100 µM; TGI (UO-31 renal): > 100 µM
